Experimental data published in article PMC5454942, “The Potential of Triterpenoids from Loquat Leaves (Eriobotrya japonica) for Prevention and Treatment of Skin Disorder” (International Journal of Molecular Sciences, 2017).
Converted amounts (≈) assume the structure as drawn. “And” between values parts separate entries of the source, which are not always exact repeats. Identical values can stand only once. Like-named read-outs stand apart in the source and are kept apart here.

Key:
B16 melanoma cells [1] = assay: Anti-melanogenesis assay (melanin content); format: cell-based, mouse; conditions: for inhibition at 1 µg/mL: 1 μg/ml; for inhibition at 2.5 µg/mL: 2.5 μg/ml; for IC50 / S.I (selectivity index, CC50 value/IC50 value): B16 melanoma cells; for inhibition at 5 µg/mL: 5 μg/ml; for inhibition at 10 µg/mL: 10 μg/ml
How it was run: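 B16 cells treated with samples in DMSO (<0.2%) for 48 h, then re-dosed in fresh medium for a further 24 h; arbutin served as positive control. Melanin content read at 405 nm and viability by MTT at 570 nm.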

[2] = Cell viability of B16 melanoma cells (MTT); conditions: mouse
mushroom tyrosinase = assay: Tyrosinase inhibition assay; format: biochemical; conditions: for inhibitory effect on tyrosinase (in words): L-DOPA as substrate; for inhibitory activity on tyrosinase (in words): L-tyrosine as substrate, relatively high concentrations
Description: Tyrosinase inhibition activity was evaluated by using L-tyrosine and L-DOPA as substrates, as described. Briefly, 333 μL of 2.5 mM L-tyrosine or L-DOPA solution (Sigma-Aldrich) was mixed with 600 μL of 0.1 M phosphate buffer (pH 6.8) and incubated at 25 °C. Then, 33 μL of the sample solution (dissolved in DMSO in various concentrations) and 33 μL of 1380 units/mL mushroom tyrosinase (Sigma-Aldrich) were added to the mixture. The optical density was measured at 475 nm up to the appropriate time. Kojic acid (Sigma-Aldrich) was used as the positive control; the final concentration is 3.3 μg/mL.

Propionibacterium acnes = assay: Anti-bacterial assay (growth inhibition, MIC/MBC by broth microdilution); format: cell-based; conditions: for MBC / MIC / inhibition at 100 µg/mL: Cutibacterium acnes; for inhibition at 100 µg/mL: read-out: Inhibition Rate (P. acnes growth); for activity against P. acnes (in words): at their maximum solubility
How it was run: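 P. acnes NBRC 107605 grown in GAM broth 30 h at 37 °C, then used at 10^5 CFU/mL. Compounds in DMSO incubated with bacteria 30 h at 37 °C; growth read at 630 nm. MIC and MBC by broth microdilution.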

RBL-2H3 cells = assay: β-hexosaminidase release from IgE-stimulated RBL-2H3 mast cells; format: cell-based, rat
How it was run: (§1)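 IgE-sensitized RBL-2H3 cells (0.5 μg/mL anti-DNP IgE, 24 h) treated with sample 30 min in Tyrode buffer, then challenged 1 h with 50 μg/mL DNP-BSA. Released β-hexosaminidase measured with 2 mM p-nitrophenyl-N-acetyl-β-glucosaminide, 3 h, A405; viability by parallel MTT.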

[3] = Cell viability of RBL-2H3 cells (parallel MTT); format: cell-based, rat; conditions: rat; 25 μg/ml, RBL-2H3 cells; read-out: Cell viability
How it was run: as §1

NHDF-Ad cells = assay: Hyaluronic acid production assay (ELISA, with MTT); format: cell-based, human; conditions: fold of control
Description: NHDF-Ad cells were seeded on 96-well plates (5 × 10^3 cells/well) for 24 h before the treatment. The medium was replaced with a mixture of 1 μL of sample solution (DMSO < 0.5% per well) and 99 μL of DMEM supplemented with 0.5% FBS. After 72 h cultivation, the amount of hyaluronic acid in the medium was measured using a QnE Hyaluronic acid ELISA kit (Biotech Trading Partners, Encinitas, CA, USA). The amount of hyaluronic acid production was quantitatively calculated from the standard curve. Cell viability was measured by the MTT method, and ascorbic acid was used as a positive control.

[4] = tested on: inflammation induced by 12-O-tetradecanoylphorbol-13-acetate (TPA); parameters: method as in PMID 16204964, PMID 14745168; conditions: mice; cited from earlier work
[5] = tested on: Epstein–Barr virus early antigen; parameters: method as in PMID 16204964, PMID 14745168; conditions: cited from earlier work
B16 melanoma cells [6] = assay: Cell viability of B16 melanoma cells (MTT); conditions: B16 cells
[7] = Mus musculus, B16 cells, read-out: Inhibition rate (100% − melanin synthesis)
[8] = Mus musculus, read-out: IC50 (melanin synthesis)
[9] = Mus musculus, read-out: IC50 melanin
[10] = P. acnes, broth microdilution, read-out: MBC
[11] = P. acnes, broth microdilution, read-out: MIC
[12] = Rattus norvegicus, RBL-2H3, 25 μg/mL, read-out: Inhibition Rate (β-hexosaminidase release)
[13] = Rattus norvegicus, RBL-2H3, read-out: Inhibition Rate (β-hexosaminidase release)

Row | SMILES | inhibition at 1 µg/mL (B16 melanoma cells [1]; [7]) [%] | inhibition at 2.5 µg/mL (B16 melanoma cells [1]; [7]) [%] | IC50 (B16 melanoma cells [1]; [8]) [µM] | IC50 (B16 melanoma cells [1]; [9]) [µg/mL] | CC50 at 72 h ([2]; B16 melanoma cells) | inhibitory effect on tyrosinase (in words) (mushroom tyrosinase) | inhibitory activity on tyrosinase (in words) (mushroom tyrosinase) | MBC (Propionibacterium acnes; [10]) [µg/mL] | MIC (Propionibacterium acnes; [11]) [µg/mL] | inhibition at 100 µg/mL (Propionibacterium acnes; concentration 100 μg/mL) [%] | activity against P. acnes (in words) (Propionibacterium acnes) | inhibition at 25 µg/mL (RBL-2H3 cells; [12]) [%] | viability at 25 μg/ml [3] [%] | S.I (selectivity index, CC50 value/IC50 value) (B16 melanoma cells [1]) | inhibition at 5 µg/mL (B16 melanoma cells [1]; [7]) [%] | inhibition at 10 µg/mL (B16 melanoma cells [1]; [7]) [%] | Inhibition rate (100% − cell viability) (B16 melanoma cells [6]; 1 μg/ml) [%] | Inhibition rate (100% − cell viability) (B16 melanoma cells [6]; 2.5 μg/ml) [%] | Inhibition rate (100% − cell viability) (B16 melanoma cells [6]; 5 μg/ml) [%] | Inhibition rate (100% − cell viability) (B16 melanoma cells [6]; 10 μg/ml) [%] | also measured
1 | C[C@H]1[C@H](C)CC[C@]2(C(=O)O)CC[C@]3(C)C(=CC[C@@H]4[C@@]5(C)CC[C@H](O)C(C)(C)[C@@H]5CC[C@]43C)[C@H]12 [Compound 1, Ursolic acid] | 24 ± 0.8 | 58.5 ± 3.2 | 4.8 | 2.2 | 4.3 µg/mL and 9.4 µM | no inhibitory effect | moderate inhibitory activity | 100 (≈ 219 µM) | 50 (≈ 109 µM) | 109.8 ± 0.5 | active | 72.5 ± 3 | 103 ± 5.3 | – | – | – | – | – | – | – | inhibition at 0.5 µg/mL (B16 melanoma cells [1]; Mus musculus, 0.5 μg/ml, B16 cells, read-out: Inhibition rate (100% − melanin synthesis)): 4.2 ± 1.7%; inhibition at 5 µg/mL (RBL-2H3 cells; Rattus norvegicus, RBL-2H3, 5 μg/mL, read-out: Inhibition Rate (β-hexosaminidase release)): 0%; inhibition at 12.5 µg/mL (RBL-2H3 cells; Rattus norvegicus, RBL-2H3, 12.5 μg/mL, read-out: Inhibition Rate (β-hexosaminidase release)): 37.6 ± 3%; IC50 (RBL-2H3 cells; Rattus norvegicus, IgE-stimulated RBL-2H3 cells, read-out: IC50 (β-hexosaminidase release)): 39.5 µM; HA/CV value (hyaluronic acid %/cell viability %) (NHDF-Ad cells; 5 μg/mL): 4.7; inhibitory activity against TPA-induced inflammation (in words) [4]: significant inhibitory activity; inhibitory activity against TPA-induced Epstein–Barr virus early antigen activation (in words) [5]: significant inhibitory activity
2 | CC1(C)CC[C@]2(C(=O)O)CC[C@]3(C)C(=CC[C@@H]4[C@@]5(C)C[C@@H](O)[C@H](O)C(C)(C)[C@@H]5CC[C@]43C)[C@@H]2C1 [Compound 7, Maslinic acid] | 2.8 ± 1.1 | 12.2 ± 1.9 | 18.5 | 8.7 | – | no inhibitory effect | moderate inhibitory activity | – | – | – | active | – | 84.4 | > 1.0 | 47.5 ± 0.4 | 54.5 ± 3 | 2.5 ± 2.2 | 3.2 ± 4.8 | 42.2 ± 4.0 | 44.3 ± 6.4 | inhibition at 20 µg/mL (B16 melanoma cells [1]; Mus musculus, 20 μg/ml, B16 cells, read-out: Inhibition rate (100% − melanin synthesis)): 65.1 ± 0.4%; CC50 at 72 h [2]: 13.8 µg/mL and 29.3 µM; Inhibition rate (100% − cell viability) (B16 melanoma cells [6]; 20 μg/ml): 76.5± 3.0%; MBC (Propionibacterium acnes): 150 µg/mL (≈ 317 µM); MIC (Propionibacterium acnes): 50 µg/mL (≈ 106 µM); inhibition at 100 µg/mL (Propionibacterium acnes): 104 ± 3.1%; IC50 (RBL-2H3 cells; Rattus norvegicus, RBL-2H3, read-out: IC50 (β-hexosaminidase release), IgE-stimulated RBL-2H3 cells): 22.9 µM; inhibition at 5 µg/mL (RBL-2H3 cells; [13]): 9.5 ± 6.6%; inhibition at 12.5 µg/mL (RBL-2H3 cells; [13]): 58.2 ± 3%; inhibition at 25 µg/mL (RBL-2H3 cells; [13]): 66 ± 2.6%; IC50 (RBL-2H3 cells; read-out: IC50 (β-hexosaminidase release), IgE-stimulated RBL-2H3 cells): 22.8 µM; inhibitory activity against TPA-induced inflammation (in words) [4]: significant inhibitory activity; inhibitory activity against TPA-induced Epstein–Barr virus early antigen activation (in words) [5]: significant inhibitory activity
3 | C[C@@H]1CC[C@]2(C(=O)O)CC[C@]3(C)C(=CC[C@@H]4[C@@]5(C)CC[C@H](O)C(C)(C)[C@@H]5CC[C@]43C)[C@@H]2[C@]1(C)O [Compound 10, Pomolic acid] | 3.2 ± 8.2 | 28.4 ± 1.5 | 14 | 6.6 | 4.9 µg/mL and 10.5 µM | – | – | – | – | 84.4 ± 1.2 | active | 22.4 ± 1.9 | 77 ± 5.3 | 0.8 | 43.9 ± 1.9 | 55.8 ± 8.1 | 1.9 ± 5.4 | 0.0 ± 6.1 | 50.9 ± 4.4 | 68.4 ± 1.5 | HA/CV value (hyaluronic acid %/cell viability %) (NHDF-Ad cells; 10 μg/mL): 5.8
4 | C[C@H]1[C@H](C)CC[C@]2(C(=O)O)CC[C@]3(C)C(=CC[C@@H]4[C@@]5(C)C[C@@H](O)[C@H](O)C(C)(C)[C@@H]5CC[C@]43C)[C@H]12 [Compound 8, Corosolic acid] | 3.4 ± 5.1 | 0.5 ± 4.1 | 18.7 | 8.8 | 12.2 µg/mL and 25.8 µM | – | – | 100 (≈ 212 µM) | 50 (≈ 106 µM) | 105.9 ± 0.4 | active | 36.1 ± 6.7 | 80.4 ± 1.6 | 1.4 | 17.4 ± 5.5 | 59.8 ± 1.9 | 0.0 ± 3.5 | 0.0 ± 3.8 | 0.3 ± 4.0 | 39.3 ± 4.7 | Inhibition rate (100% − cell viability) (B16 melanoma cells [6]; 20 μg/ml): 94.8± 0.3%; HA/CV value (hyaluronic acid %/cell viability %) (NHDF-Ad cells; 10 μg/mL): 5.9
